Results reported in patent US20040259905A1, “Aqueous ecabet sodium solution preparation” (priority 2001, published 2004).
Structures can show the parent of a compound that is named as a salt.

Assay: Solubility of ecabet sodium in aqueous solution
Type: physicochemical
Conditions: pH less than pH 7

CC(C)c1cc2c(cc1S(=O)(=O)O)[C@@]1(C)CCC[C@@](C)(C(=O)O)[C@@H]1CC2 [ecabet sodium, (+)-(1R,4aS,10aR)-1,2,3,4,4a,9,10,10a-octahydro-1,4a-dimethyl-7-(1-methylethyl)-6-sulfo-1-phenanthrencarboxylic acid 6-sodium salt pentahydrate]
solubility in an aqueous solution: low
